The text below walks through data of paper PMC3912015, “Synthetic Multivalent Antifungal Peptides Effective against Fungi” (PLoS ONE, 2014).

The format of series [1] is biochemical. Here is the method: Small unilamellar vesicles (SUVs) were prepared using PC/PE/PI or PS lipids (5∶2.5∶2.5) containing 15 wt% ergosterol or PC/Cholesterol (10∶1). For the preparation of PC/PE/PI or PS/Erg SUV, the lipids were dissolved in chloroform/methanol (2∶1, v/v) in a glass tube. Ergosterol was dissolved in same solvent and added to lipid mixture to make final ergosterol content of 15 wt%. The Lipid-ergosterol mixture was dried using nitrogen gas to form lipid layer. The film was hydrated in a buffer containing 20 mM PBS (pH 7), vortexed and sonicated. Each cycle of sonication (5 sec, 40°C) was followed by freezing in liquid nitrogen and thawing on a water bath kept at 37°C. The procedure was repeated 5–6 times until an optically clear dispersion appeared. The SUV was divided into two parts. To the first part 50 mM calcein was added and incubated for 1 h. The excess calcein was removed by injecting 100 µL of the calcien-loaded SUV’s into a Ultrahydrogel™ 250 (7.8 mm × 300 mm) column equilibrated with 20 mM PBS (pH 7.0) and eluted isochratically at a flow rate of 1 mL/min for 1.5 column volumes. The calcein-loaded liposomes were mixed with calcein-free liposome (1∶1) to adjust final liposome concentration. Peptide concentration was added to obtain 1∶30 or 1∶15 peptide:liposome ratio. Changes in the fluorescence signal after addition of peptide or Triton X-100 was measured on a PTI spectrofluorometer, using an excitation wavelength of 480 nm and emission wavelength of 512 nm. The Percentage calcein released at each time point was calculated using the equation, [drawing 1]
Where A0 is the observed fluorescence intensity upon addition of peptides, Amin is the average intensity at the baseline (before peptide addition), Amax is the average intensity at the saturation phase after adding 1% Triton X-100. Similar protocol was followed for the preparation of PC/Cholesterol SUVs.

In series [2] the test system is C. albicans ATCC24433. Description: microbe, parasite or virus in culture. Format: cell-based. Particulars: ATCC24433, 48 h. Here is the method:
(§1) The yeast strains were cultivated and suspended in Sabouraud’s Dextrose (SD) broth diluted to one sixth at a starting OD600 = ∼0.08 in a flat-bottomed microtitre plate. A serial dilution of peptide in the same broth was mixed with the inoculum to give a final peptide concentration of 0.4–22 µM. The antifungal activity was assessed by monitoring the OD600 in cycles of 30 minutes and an orbital shaking at 100 rpm using an Infinite M200 microplate reader (Tecan Group Ltd., Switzerland) for 24/48 h at 37°C. Cultures without peptides were used as positive controls and broth alone or with 22 µM peptide served as negative controls. The minimum concentration required for complete inhibition was assessed by both visible observations as well as by measuring the OD600 and taken as the MIC. Each experiment was repeated in triplicates. For studying the effects of metal ions, SD broth was adjusted with appropriate concentrations of salts to yield a final concentration of 100 and 135 mM for NaCl and KCl and 0.5–2 mM for CaCl2 and MgCl2. MIC determinations were carried out as described above. C. albicans ATCC10231 cells and salts in broth were taken as a positive control. Salts alone (NaCl, KCl, and CaCl2 and MgCl2) in broth or with 22 µM peptide served as a negative control. The effect of 5% human serum on the activities of B4010 against two C. albicans clinical isolates was determined. The human male serum was centrifuged at 13,000 rpm for 10 mins in order to remove the lipids and the supernatant was collected. The MIC values against clinical isolates of C. albicans 2672R and C. albicans 1976R were determined both in standard medium (SD broth) as well as in standard medium containing 5% serum supernatant as before.

In series [3] the test system is C. albicans DF2672R. Description: microbe, parasite or virus in culture. The following applies: DF2672R, 48 h; read-out: MIC in µM against Ca 2672R. Format: cell-based. Here is the method: as §1
For series [4], the system named is C. albicans DF1976R. Description: microbe, parasite or virus in culture. The following applies: DF1976R, 48 h; read-out: MIC in µM against Ca DF1976R. Format: cell-based. The method, then: as §1
The test system of series [5] is C. albicans ATCC10231. Description: microbe, parasite or virus in culture. The series is classed as cell-based. Particulars: ATCC10231, 48 h; read-out: MIC in µM against Ca 10231. The method, then:
as §1

For series [6], the system named is C. albicans ATCC2091. Description: microbe, parasite or virus in culture. Format: cell-based. Particulars: ATCC2091, 48 h. The method, then: as §1
In series [7] the test system is F. solani DM3782. Description: microbe, parasite or virus in culture. The following applies: 48 h. The series is classed as cell-based.

Each structure is given as a SMILES string. Values after ≈ are worked out from the molar mass of the structure shown. Like-named read-outs stand apart in the source and are kept apart here. Bridge positions count the residues as written; N and C are the ends. Peptide text beside a SMILES is read from it. I, II: the chains in the order shown.

For the compound `CC(C)[C@H](NC(=O)[C@H](CCCCN)NC(=O)[C@H](CCCNC(=N)N)NC(=O)CNC(=O)[C@@H](N)CCCNC(=N)N)C(=O)N[C@H](C(=O)N[C@@H](CCCNC(=N)N)C(=O)N[C@@H](CCCNC(=N)N)C(=O)NCCCC[C@H](NC(=O)[C@H](CCCNC(=N)N)NC(=O)[C@H](CCCNC(=N)N)NC(=O)[C@@H](NC(=O)[C@@H](NC(=O)[C@H](CCCCN)NC(=O)[C@H](CCCNC(=N)N)NC(=O)CNC(=O)[C@@H](N)CCCNC(=N)N)C(C)C)C(C)C)C(=O)NCCCC[C@H](NC(=O)[C@H](CCCCNC(=O)[C@H](CCCNC(=N)N)NC(=O)[C@H](CCCNC(=N)N)NC(=O)[C@@H](NC(=O)[C@@H](NC(=O)[C@H](CCCCN)NC(=O)[C@H](CCCNC(=N)N)NC(=O)CNC(=O)[C@@H](N)CCCNC(=N)N)C(C)C)C(C)C)NC(=O)[C@H](CCCNC(=N)N)NC(=O)[C@H](CCCNC(=N)N)NC(=O)[C@@H](NC(=O)[C@@H](NC(=O)[C@H](CCCCN)NC(=O)[C@H](CCCNC(=N)N)NC(=O)CNC(=O)[C@@H](N)CCCNC(=N)N)C(C)C)C(C)C)C(=O)N[C@@H](CCCCN)C(=O)O)C(C)C` [B4010] (I: H-RGRKVVRRKKK-OH / II: H-RGRKVVRRK / III: H-RGRKVVRR / IV: H-RGRKVVRR; amide I:9-IV:C, I:10-II:C, II:9-III:C; N-terminus and C-terminus assumed), the “% Calcein released from PC/PE/PS/Erg” value in series [1] is given as about 68%. In series [1], the “dye (calcein) release” value was about 46%. Moreover, the MIC in series [2] (read-out: MIC) is on record as 1.4 µM (≈ 6.39 µg/mL); in series [2] (read-out: MIC in µM against Ca 24433), 1.4 µM (≈ 6.39 µg/mL); in series [3], 0.37 µM (≈ 1.69 µg/mL); in series [4], 0.37 µM (≈ 1.69 µg/mL); in series [5], 1.4 µM (≈ 6.39 µg/mL); in series [6] (read-out: MIC), 0.7 µM (≈ 3.19 µg/mL). The MIC stood at 0.7 µM (≈ 3.19 µg/mL) in series [6] (read-out: MIC in µM against Ca 2091) and 1.4 µM (≈ 6.39 µg/mL) in series [7].
